# Measured values reported in patent US20240149298A1, “PREPARATION OF HYDROPHOBIC SURFACES” (Technion Research & Development Foundation Limited, priority 2021, published 2024).
# Columns and labels:
# Botrytis cinerea [1] = assay: Anti-fungal effect of neat fatty acids on PDA agar plates; assay type: cell-based; details: neat fatty acid at centre of PDA plate, 24° C., 72 hours
# Protocol: Anti-fungal studies: Botrytis cinerea (B. cinerea) isolate B05.10 was collected from Vitis vinifera. Botrytis cinerea spores were plated on potato dextrose agar (PDA) plates, each fatty acid powder was placed in the center of the plate, and the plates were then incubated at 24° C. for 72 hours. In the case of caprylic acid, a hole was punched in the middle of the agar plate in order to contain its liquid form.
# [2] = Wetting properties: water contact angle (CA) of fatty acid coatings; assay type: physicochemical; details: for Contact angle [°] (about 5% RSD): sprayed on stainless steel, room temperature; for Contact angle [°] (N = 3) / Contact angle [°]: spray coating; for Contact angle [°]: N = 5
# Protocol: Wetting properties of the coatings were characterized by CA and CAH measurements, which were performed using an Attension Theta Lite tensiometer and high-purity water or ethylene glycol (99.5%, Merck, Germany) droplets of 7 μL volume. Spray coating was performed by spraying a selected organic solution of a selected fatty acid or a selected mixture of fatty acids on a desired surface using commercially available spraying gun. Gun adjustment is required to obtain the optimal coating properties. Exemplary adjustment parameters included distance from the treated surface, which was optimal at around 30 cm, and pulse duration, which was optimal at 1-5 seconds (e.g., 1-2 seconds). Other parameters are described hereinabove. […] Roughness (RMS) and wettability measurements were performed as described hereinabove.
# [3] = Roughness (RMS) of spray-deposited fatty acid layer, dynamic confocal microscope; assay type: physicochemical; details: for Roughness [μm] (about 10% RSD): sprayed on stainless steel, room temperature; for Roughness [μm] (N = 3) / Roughness [μm]: spray coating; for Roughness [μm]: N = 5
# Protocol: Roughness and coating thickness were measured using a dynamic confocal microscope (Leica DCM3D); data processing was performed using SensoMap Turbo software. The coating thickness was calculated as the difference in height between the lower and upper levels of a confocal profile measured after a scratch implementation on the coating using a 25G needle. Spray coating was performed by spraying a selected organic solution of a selected fatty acid or a selected mixture of fatty acids on a desired surface using commercially available spraying gun. Gun adjustment is required to obtain the optimal coating properties. Exemplary adjustment parameters included distance from the treated surface, which was optimal at around 30 cm, and pulse duration, which was optimal at 1-5 seconds (e.g., 1-2 seconds). Other parameters are described hereinabove. Exemplary solutions were sprayed onto a surface of stainless steel, at room temperature. Roughness (RMS) and wettability measurements were performed as described hereinabove.
# E. coli = assay: Antimicrobial properties of fatty acid powders in liquid medium, drop-plate method; assay type: cell-based, Escherichia coli; details: 50 milligram SFA powder per 1 mL suspension, 24 hours at 37° C.; control 1.2 ± 0.2 · 10^8
# Protocol: (§1) Antimicrobial studies: The antimicrobial properties of fatty acid powders were evaluated by in liquid medium via the drop-plate method. One bacteria colony (E. coli or L. innocua) was incubated overnight in 4 mL Nutrient Broth (NB) liquid medium (Sigma Aldrich, Israel) at 37° C. under agitation (150 rpm) until the bacteria reached a stationary phase (about 10^9 CFU/mL). Then, the overnight bacteria culture was diluted in fresh NB medium (about 10^7 CFU/mL) and incubated for an additional 2 hours to achieve a logarithmic culture. Next, the logarithmic culture was diluted to 10^4 CFU mL^−1 in 1:100 NB medium.
# (§2) 1 mL of the diluted bacterial suspension was incubated with 50 milligram of different SFA powders at 37° C. for 24 hours in 24-well-plates under agitation (100 rpm). The cultures were decimally diluted and 10 μL drops were transferred onto NB solid agar substrate. The colonies were counted after 24 hours incubation at 37° C.
# (§3) To study the intrinsic bactericidal effect of the tested SFAs against both Gram-positive and Gram-negative bacteria, incubation of bacteria culture with powdered SFAs followed by colony counting was performed. Table 3 hereinbelow presents E. coli and L. innocua count in colony-forming unit (CFU) per milliliter, estimated by the drop-plate method following incubation for 24 hours at 37° C. with the SFA powders in respective liquid media.
# L. innocua = assay: as above; assay type: cell-based, Listeria innocua; details: 24 hours at 37° C.; for L. innocua [CFU mL^−1]: 50 milligram SFA powder per 1 mL suspension, control 2.4 ± 0.2 · 10^5; for L. innocua growth inhibition: powdered SFA
# Protocol: as §1, §2, §3
# [4] = Contact angle hysteresis (CAH) of spray-coated fatty acid coatings; assay type: physicochemical; details: spray coating
# Protocol: Wetting properties of the coatings were characterized by CA and CAH measurements, which were performed using an Attension Theta Lite tensiometer and high-purity water or ethylene glycol (99.5%, Merck, Germany) droplets of 7 μL volume.
# Botrytis cinerea [5] = assay: Ex-planta rose petals, damaged area after Botrytis cinerea spore droplets; details: thick, medium and thin sprayed layers; 10^4 spores per milliliter, 30 μL droplets, 72 hours, room temperature
# Protocol: Botrytis cinerea culture was diluted in potato dextrose broth (PDB) medium to a final concentration of 10^4 spores per milliliter. 30 μL droplets were put on the coated leaves and uncoated control leaves and left in room temperature protected from light for 72 hours. A damaged area can be observed below and surrounding each droplet. The damaged area was then measured using a caliper along its long and the short directions.
# [6] = Diethyl ether (Tb 36.4), 20 mg/ml
# [7] = Diethyl ether (Tb 36.4), 50 mg/ml
# [8] = Diethyl ether (Tb 36.4), 50 mg/ml, listed as palmitic acid
smiles,measurement,setting,value
C/C=C/C=C/C(=O)O [sorbic acid],anti-fungal effect against Botrytis cinerea growth,Botrytis cinerea [1],significant growth inhibition
same,properties of sprayed coating as single component,"[2]; preliminary tests, data not shown",hydrophilic coating which was not stable over time
CCCCCCCCCCCC(=O)O [Lauric acid],Roughness [μm] (about 10% RSD),"[3]; EtOH, 10 mg/ml",5.2 μm
same,Contact angle [°] (about 5% RSD),"[2]; EtOH, 10 mg/ml",113 °
CCCCCCCCCCCCCC(=O)O [Myristic acid],Roughness [μm] (about 10% RSD),"[3]; Acetone, 10 mg/ml",4.2 μm
same,Roughness [μm] (about 10% RSD),"[3]; Diethyl ether, 20 mg/ml",5.6 μm
same,Roughness [μm] (about 10% RSD),"[3]; EtOH, 10 mg/ml",4.7 μm
same,Contact angle [°] (about 5% RSD),"[2]; Acetone, 10 mg/ml",120 °
same,Contact angle [°] (about 5% RSD),"[2]; Diethyl ether, 20 mg/ml",132 °
same,Contact angle [°] (about 5% RSD),"[2]; EtOH, 10 mg/ml",115 °
CCCCCCCCCCCCCCCCCCCCCC(=O)O [Behenic acid],anti-fungal effect against Botrytis cinerea growth,Botrytis cinerea [1],do not present any anti-fungal effect
same,Roughness [μm] (about 10% RSD),"[3]; Diethyl ether, 2 mg/ml",4.2 μm
same,Contact angle [°] (about 5% RSD),"[2]; Diethyl ether, 2 mg/ml",156 °
CCCCCCCCCCCCCCCCCC(=O)O [Stearic acid],E. coli [CFU mL^−1],E. coli,1.8 ± 0.05 · 10^8 CFU mL^−1
same,L. innocua [CFU mL^−1],L. innocua,1.9 ± 0.5 · 10^4 CFU mL^−1
same,L. innocua growth inhibition,L. innocua,inhibited by an order of magnitude
same,Roughness [μm] (N = 3),"[3]; Acetone (Tb 56.0), 10 mg/ml",11.9 ± 3.7 μm
same,Roughness [μm],"[3]; Acetone (Tb 56.0), 20 mg/ml",7.5 ± 0.9 μm
same,Roughness [μm],[3]; [6],6.1 ± 1.0 μm
same,Roughness [μm] (N = 3),[3]; [7],8.0 ± 0.6 μm
same,Roughness [μm] (N = 3),"[3]; EtOH (Tb 78.4), 10 mg/ml",1.5 ± 0.06 μm
same,Roughness [μm],"[3]; EtOH (Tb 78.4), 20 mg/ml",1.1 ± 0.1 μm
same,Roughness [μm] (about 10% RSD),"[3]; Acetone, 5 mg/ml",1.3 μm
same,Roughness [μm] (about 10% RSD),"[3]; Acetone, 20 mg/ml",7.5 μm
same,Roughness [μm] (about 10% RSD),"[3]; Diethyl ether, 15 mg/ml",5.7 μm
same,Roughness [μm] (about 10% RSD),"[3]; Diethyl ether, 20 mg/ml",6.1 μm
same,Roughness [μm] (about 10% RSD),"[3]; EtOH, 5 mg/ml",0.7 μm
same,Roughness [μm] (about 10% RSD),"[3]; EtOH, 20 mg/ml",1.1 μm
same,Roughness [μm] (about 10% RSD),"[3]; MeOH, 4 mg/ml",3.5 μm
same,CAH [°] (N = 3),"[4]; Acetone (Tb 56.0), 10 mg/ml",2.3 ± 1.2 °
same,CAH [°] (N = 3),"[4]; Acetone (Tb 56.0), 20 mg/ml",2.0 ± 1.7 °
same,CAH [°] (N = 3),[4]; [6],2.2 ± 1.1 °
same,CAH [°] (N = 3),[4]; [7],1.7 ± 1.4 °
same,CAH [°] (N = 3),"[4]; EtOH (Tb 78.4), 10 mg/ml",27.5 ± 7.0 °
same,CAH [°] (N = 3),"[4]; EtOH (Tb 78.4), 20 mg/ml",11 ± 1.2 °
same,effect of adding a food coloring agent on water contact angle,"[2]; 0.02 gram/ml in diethyl ether plus coloring agent, spray-coated on glass",no change in water contact angle
same,Contact angle [°] (N = 3),"[2]; Acetone (Tb 56.0), 10 mg/ml",156.4 ± 1.5 °
same,Contact angle [°],"[2]; Acetone (Tb 56.0), 20 mg/ml",156.5 ± 5.5 °
same,Contact angle [°],[2]; [6],165.3 ± 1.1 °
same,Contact angle [°] (N = 3),[2]; [7],165.7 ± 4.4 °
same,Contact angle [°] (N = 3),"[2]; EtOH (Tb 78.4), 10 mg/ml",113.2 ± 4.6 °
same,Contact angle [°],"[2]; EtOH (Tb 78.4), 20 mg/ml",118.3 ± 5.8 °
same,Contact angle [°] (about 5% RSD),"[2]; Acetone, 5 mg/ml",145 °
same,Contact angle [°] (about 5% RSD),"[2]; Acetone, 20 mg/ml",156 °
same,Contact angle [°] (about 5% RSD),"[2]; Diethyl ether, 15 mg/ml",149 °
same,Contact angle [°] (about 5% RSD),"[2]; Diethyl ether, 20 mg/ml",165 °
same,Contact angle [°] (about 5% RSD),"[2]; EtOH, 5 mg/ml",110 °
same,Contact angle [°] (about 5% RSD),"[2]; EtOH, 20 mg/ml",118 °
same,Contact angle [°] (about 5% RSD),"[2]; MeOH, 4 mg/ml",136 °
CCCCCCCCCCCCCCCC(=O)O [Palmitic acid],E. coli [CFU mL^−1],E. coli,1.4 ± 0.6 · 10^8 CFU mL^−1
same,anti-fungal effect against Botrytis cinerea growth,Botrytis cinerea [1],do not present any anti-fungal effect
same,L. innocua [CFU mL^−1],L. innocua,1.7 ± 0.5 · 10^4 CFU mL^−1
same,L. innocua growth inhibition,L. innocua,inhibited by an order of magnitude
same,Roughness [μm] (N = 3),[3]; [7],4.4 ± 0.4 μm
same,Roughness [μm] (about 10% RSD),"[3]; Acetone, 15 mg/ml",5.0 μm
same,Roughness [μm] (about 10% RSD),"[3]; Diethyl ether, 10 mg/ml",3.2 μm
same,Roughness [μm] (about 10% RSD),"[3]; Diethyl ether, 20 mg/ml",4.8 μm
same,Roughness [μm] (about 10% RSD),"[3]; EtOH, 10 mg/ml",2.3 μm
same,Roughness [μm] (about 10% RSD),"[3]; MeOH, 10 mg/ml",3.6 μm
same,protection of rose petals against damage by Botrytis cinerea,Botrytis cinerea [5],most effectively inhibit damage propagation
same,CAH [°] (N = 3),[4]; [7],11.1 ± 4.6 °
same,CAH [°] (N = 3),[4]; [8],11.1 °
same,Contact angle [°] (N = 3),[2]; [7],156.6 ± 2.3 °
same,Contact angle [°] (N = 3),[2]; [8],156.6 °
same,CA angle,[2]; spray-coated,above 150 °
same,Contact angle [°] (about 5% RSD),"[2]; Acetone, 15 mg/ml",140 °
same,Contact angle [°] (about 5% RSD),"[2]; Diethyl ether, 10 mg/ml",145 °
same,Contact angle [°] (about 5% RSD),"[2]; Diethyl ether, 20 mg/ml",148 °
same,Contact angle [°] (about 5% RSD),"[2]; EtOH, 10 mg/ml",111 °
same,Contact angle [°] (about 5% RSD),"[2]; MeOH, 10 mg/ml",137 °
same,CA,[2]; thermally deposited on glass,below 140 °
"CCCCCCCC(=O)O [caprylic acid, Caprylic acid]",anti-fungal effect against Botrytis cinerea growth,Botrytis cinerea [1],complete inhibition
CCCCCCCCCCCCCCCCCCCC(=O)O [Arachidic acid],E. coli [CFU mL^−1],E. coli,9.6 ± 3.2 · 10^7 CFU mL^−1
same,L. innocua [CFU mL^−1],L. innocua,0 CFU mL^−1
same,L. innocua growth inhibition,L. innocua,completely inhibited
same,Roughness [μm] (about 10% RSD),"[3]; Acetone, 2 mg/ml",2.7 μm
same,Roughness [μm] (about 10% RSD),"[3]; Diethyl ether, 10 mg/ml",4.3 μm
same,Roughness [μm] (about 10% RSD),"[3]; EtOH, 1 mg/ml",0.9 μm
same,Contact angle [°] (about 5% RSD),"[2]; Acetone, 2 mg/ml",134 °
same,Contact angle [°] (about 5% RSD),"[2]; Diethyl ether, 10 mg/ml",152 °
same,Contact angle [°] (about 5% RSD),"[2]; EtOH, 1 mg/ml",119 °
